Measurements reported in patent US20250161250A1, “COMPOSITIONS AND METHODS FOR TREATMENT OF IDIOPATHIC PULMONARY FIBROSIS” (NUFORMIX TECHNOLOGIES LIMITED, priority 2022, published 2025).
Entries after “also recorded” stand apart in the source; their conditions may differ.

Columns and labels:
Assay type in all cases: cell-based
MCP-1 = MCP-1 levels in human IPF-PCLS culture supernatants (MSD multiplex ELISA); settings: for MCP-1: after 4-day dosing; for MCP-1 secretion: any concentration tested, human IPF PCLS supernatant
Experimental: (§1) PCLS preparation and culture: PCLS were prepared from a single explanted human IPF lung and rested for 48 hrs to allow the post-slicing stress period to elapse before experiments began. PCLS were subsequently incubated with vehicle (0.1% DMSO), tranilast as a 1:1 l-lysine tranilast salt at 2 escalating concentrations (31.25 μM, 125 μM), pirfenidone at 3 escalating concentrations (0.25 mM, 1 mM, 2.5 mM) or nintedanib at 3 escalating concentrations (0.25 μM, 1 μM, 2.5 μM) in the presence or absence of Tranilast at 2 escalating concentrations (31.25 μM, 125 μM) for a further 96 hrs. PCLS culture media and all compounds were refreshed at 24 hrs intervals. All PCLS were harvested at 144 hrs.
(§2) Experimental groups: Twenty-one (21) different groups with n=6 human PCLS (total n=126 per lung) were investigated as shown in Table 4 below. PCLS were prepared from n=1 individual human IPF lungs.
(§3) PCLS Treatments and Media Collections: PCLS were incubated for a 48 hr rest period. Post-rest, PCLS were incubated for a further 96 hrs in the presence or absence of inhibitors as outlined above. PCLS culture media, including all compounds, were refreshed and harvested at 24 hrs intervals from 48 hrs. All PCLS were harvested at 144 hrs.
(§4) PCLS harvest: Cell culture supernatant (n=6 per group) were collected every 24 hrs and snap frozen for quantification of inflammatory cytokines and soluble ECM proteins. At harvest, PCLS (n=6 per group) and cell culture media (n=6 per group) were snap frozen for quantification of inflammatory cytokines and soluble ECM proteins.
(§5) Soluble outputs analysis: Anti-inflammatory potential was assessed by determining the levels of the inflammation markers MCP-1, IL-6, GMCSF, IL-8, and IL-1β in the tissue culture supernatants experiment (n=213 samples (n=630 samples; n=126 at 48 hrs, 72 hrs, 96 hrs, 120 hrs and 144 hrs) were quantified using a MSD multiplex ELISA (MesoScaleDiscovery). Anti-fibrotic potential was assessed by determining the levels of the fibrosis markers Collagen-1a1, TIMP1, and Fibronectin in the tissue culture supernatants (n=630 samples as above) were quantified using a single-plex ELISA (R&D). Summary data for all inflammatory markers and fibrotic markers in PCLS treated with pirfenidone (FIGS. 1a and 1b) or nintedanib (FIGS. 2a and 2b) in the presence or absence of Tranilast at 144 hrs only. Graphs are represented by n=6 tissue culture media per condition, per time point. Data is presented as mean±SEM with individual values per tissue culture media.

IL-6 = IL-6 levels in human IPF-PCLS culture supernatants (MSD multiplex ELISA); settings: single treatment, any concentration tested
Experimental: as §1, §2
(§6) PCLS Treatments and Media Collections: PCLS were incubated for a 48 hr rest period. […]
as §4
as §5, with “Graphs are represented by n=6 tissue culture media per condition, per time point. Data is presented as mean±SEM with individual values per tissue culture media.” left out

IL-8 = IL-8 levels in human IPF-PCLS culture supernatants (MSD multiplex ELISA); settings: single treatment, any concentration tested
Experimental: as §1, §2, §6, §4
as §5, with “Graphs are represented by n=6 tissue culture media per condition, per time point. Data is presented as mean±SEM with individual values per tissue culture media.” left out

Collagen-1a1 = assay: Collagen 1a1 levels in human IPF-PCLS culture supernatants (single-plex ELISA); settings: for Collagen 1a1 secretion: single treatment; for Col1A1: after 4-day dosing
Experimental: as §1, §2, §3, §4, §5

Fibronectin = Fibronectin levels in human IPF-PCLS culture supernatants (single-plex ELISA); settings: single treatment, high concentration, at 144 hrs
Experimental: as §1, §2, §6
PCLS harvest: Cell culture supernatant (n=6 per group) were collected every 24 hrs and snap frozen for quantification of inflammatory cytokines and soluble ECM proteins. At harvest, PCLS (n=6 per group) and cell culture media (n=6 per group) were snap frozen for quantification of inflammatory cytokines and soluble ECM proteins. […]

[1] = alone (suboptimal / ineffective concentration)
[2] = suboptimal concentrations alone

SMILES	MCP-1 (MCP-1; [1])	MCP-1 secretion (MCP-1; single treatment)	IL-6 secretion (IL-6)	IL-8 secretion (IL-8)	Collagen 1a1 secretion (Collagen-1a1; any concentration tested)	MCP-1 (MCP-1; high concentration alone)	Col1A1 (Collagen-1a1; high concentration alone)	Col1A1 (Collagen-1a1; [2])	Fibronectin secretion (Fibronectin)	MCP-1 levels (MCP-1; single treatment, high concentration)	Collagen 1a1 secretion (Collagen-1a1; high concentration)
COC(=O)c1ccc2c(c1)NC(=O)/C2=C(\Nc1ccc(N(C)C(=O)CN2CCN(C)CC2)cc1)c1ccccc1 [nintedanib]	no effect; also recorded: neither nintedanib (Nin) nor tranilast (TL) alone effected	little to no effect	Little to no effect	little to no effect	little to no effect						
Cc1ccc(=O)n(-c2ccccc2)c1 [pirfenidone]	minimal effect	concentration dependently attenuated	Little to no effect	concentration dependently attenuated	concentration dependently attenuated	strongly inhibited	strongly inhibited	minimal effect	attenuation		
COc1ccc(/C=C/C(=O)Nc2ccccc2C(=O)O)cc1OC [tranilast, 2-[[3-(3,4-dimethoxyphenyl)-1-oxo-2-propenyl]amino]benzoic acid]	minimal effect; also recorded: neither nintedanib (Nin) nor tranilast (TL) alone effected		Little to no effect	little to no effect				minimal effect		marginally reduced	marginally reduced
